Data: patent publication US7781593B2, “5-phenyl-nicotinamide derivatives” (Hoffmann-La Roche Inc., priority 2006, dated 2010)

Legend:
[1] = target: T1, human cannabis CB1 receptor (Homo sapiens, UniProt P21554); experiment: Affinity for cannabinoid CB1 receptors, [3H]-CP-55,940 radioligand binding on HEK cell membranes
T1 construct: expressed in transfected cells; host or cells: human embryonic kidney (HEK) cells, Semliki Forest Virus system, membrane preparation
Method: The affinity of the compounds of the invention for cannabinoid CB1 receptors was determined using membrane preparations of human embryonic kidney (HEK) cells in which the human cannabis CB1 receptor is transiently transfected using the Semliki Forest Virus system in conjunction with [3H]-CP-55,940 as radioligand. After incubation of a freshly prepared cell membrane preparation with the [3H]-ligand, with or without addition of compounds of the invention, separation of bound and free ligand was performed by filtration over glassfiber filters. Radioactivity on the filter was measured by liquid scintillation counting.
The compounds of formula (I) show an excellent affinity for the CB1 receptor, determined with the experimental conditions described in Devane et al. Mol. Pharmacol. 34 (1988) 605-613.

[2] = doses of 10 and 20 mg daily; cited from earlier work
[3] = wild-type versus CB1 receptor knockout mice; cited from earlier work

T1 sequence (P21554 whole entry): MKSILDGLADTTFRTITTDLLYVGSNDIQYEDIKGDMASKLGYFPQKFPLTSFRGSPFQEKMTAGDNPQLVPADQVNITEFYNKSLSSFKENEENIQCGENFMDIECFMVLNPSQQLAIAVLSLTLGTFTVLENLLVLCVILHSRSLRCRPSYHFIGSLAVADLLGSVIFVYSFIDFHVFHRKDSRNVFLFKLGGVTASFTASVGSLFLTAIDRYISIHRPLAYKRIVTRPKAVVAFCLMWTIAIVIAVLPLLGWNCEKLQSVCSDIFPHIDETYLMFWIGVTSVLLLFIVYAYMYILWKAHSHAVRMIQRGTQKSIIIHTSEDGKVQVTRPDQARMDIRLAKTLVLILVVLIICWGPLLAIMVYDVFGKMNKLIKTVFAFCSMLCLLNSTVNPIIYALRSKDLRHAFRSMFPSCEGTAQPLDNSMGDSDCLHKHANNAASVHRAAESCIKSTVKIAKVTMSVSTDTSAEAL

Row | Ki [1] | SMILES | body weight compared to placebo [2] | food intake [3]
1 | 11 nM | O=C(N[C@@H]1CCCC[C@H]1O)c1cnc(CCc2cccnc2)c(-c2ccc(Cl)cc2)c1 [Example 7, 5-(4-Chloro-phenyl)-N-((1R,2R)-2-hydroxy-cyclohexyl)-6-(2-pyridin-3-yl-ethyl)-nicotinamide] |  | 
2 | 26 nM | O=C(N[C@@H]1CCCC[C@H]1O)c1cnc(CCC2CC2)c(-c2ccc(Cl)cc2)c1 [Example 2, 5-(4-Chloro-phenyl)-6-(2-cyclopropyl-ethyl)-N-((1R,2R)-2-hydroxy-cyclohexyl)-nicotinamide] |  | 
3 | 60 nM | O=C(N[C@@H]1CCCC[C@H]1O)c1cnc(CCc2cncnc2)c(-c2ccc(C(F)(F)F)cc2)c1 [Example 3, N-((1R,2R)-2-Hydroxy-cyclohexyl)-6-(2-pyrimidin-5-yl-ethyl)-5-(4-trifluoromethyl-phenyl)-nicotinamide] |  | 
4 |  | Cc1c(C(=O)NN2CCCCC2)nn(-c2ccc(Cl)cc2Cl)c1-c1ccc(Cl)cc1 [SR 141716] | significantly reduced body weight | reduces food intake in wild-type but not knockout mice
